Biological target: T1, Tyrosine-protein phosphatase non-receptor type 22 (Homo sapiens, UniProt Q9Y2R2)
T1 sequence (Q9Y2R2 whole entry): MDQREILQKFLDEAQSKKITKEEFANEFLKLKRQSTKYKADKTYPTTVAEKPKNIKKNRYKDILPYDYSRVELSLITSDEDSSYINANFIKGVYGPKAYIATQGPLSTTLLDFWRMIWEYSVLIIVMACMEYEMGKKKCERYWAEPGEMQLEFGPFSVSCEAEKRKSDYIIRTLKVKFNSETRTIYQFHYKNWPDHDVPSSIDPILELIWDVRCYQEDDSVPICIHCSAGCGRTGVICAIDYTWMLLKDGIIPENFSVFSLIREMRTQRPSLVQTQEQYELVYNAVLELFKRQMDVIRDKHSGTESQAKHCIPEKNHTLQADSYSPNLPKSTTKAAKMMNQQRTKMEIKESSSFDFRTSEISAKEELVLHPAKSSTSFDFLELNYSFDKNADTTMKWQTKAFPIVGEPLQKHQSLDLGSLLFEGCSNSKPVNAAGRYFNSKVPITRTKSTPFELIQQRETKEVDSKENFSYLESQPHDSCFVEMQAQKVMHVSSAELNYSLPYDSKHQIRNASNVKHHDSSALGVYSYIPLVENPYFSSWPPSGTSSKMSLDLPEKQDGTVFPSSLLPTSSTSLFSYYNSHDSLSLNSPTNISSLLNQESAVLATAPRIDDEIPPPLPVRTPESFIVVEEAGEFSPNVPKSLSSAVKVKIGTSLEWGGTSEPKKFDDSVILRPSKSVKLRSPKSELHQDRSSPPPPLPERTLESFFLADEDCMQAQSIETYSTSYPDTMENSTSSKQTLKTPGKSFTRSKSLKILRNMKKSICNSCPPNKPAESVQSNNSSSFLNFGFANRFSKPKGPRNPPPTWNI
Assay: lymphoid phosphatase LYP inhibitors – biochemical, selectivity assay for STEP inhibitor project, dose response (AID 624241)

| Structure (SMILES) | IC50 |
| --- | --- |
| O=S(=O)(Nc1ccc(Cl)cc1)c1ccc(N2CCOCC2)c(NC(=S)NCCN2CCOCC2)c1 | > 100 µM |
| O=C(CCc1ccccc1)NNC(=O)c1ccc(NC(=O)c2ccccc2)cc1 | > 100 µM |
| COc1cccc(Nc2nn3c(=O)c4ccccc4nc3s2)c1 | > 100 µM |
| O=C(N/N=C/c1ccncc1)c1cccc(S(=O)(=O)Nc2ccc(Cl)cc2)c1 | > 100 µM |
| Cc1ccc(N=C(S)N(CCN(C)C)Cc2cccs2)c(C)c1 | > 100 µM |
| NC(=O)C1(N2CCCCC2)CCN(C(=S)Nc2ccc(S(N)(=O)=O)cc2)CC1 [1'-({[4-(aminosulfonyl)phenyl]amino}carbonothioyl)-1,4'-bipiperidine-4'-carboxamide] | > 100 µM |
| S=C(NCCc1ccccc1)Nc1c(Cl)cccc1Cl [1-(2,6-dichlorophenyl)-3-(2-phenylethyl)thiourea] | > 100 µM |
| COc1ccc(NC(=S)NCCCN2CCCC2)cc1Cl [1-(3-chloro-4-methoxyphenyl)-3-[3-(1-pyrrolidinyl)propyl]thiourea] | > 100 µM |
| CCCN(CC(=O)Nc1ccccc1OC)C(=O)Cc1ccc2c(c1)CCC2 [2-(2,3-dihydro-1H-inden-5-yl)-N-[2-[(2-methoxyphenyl)amino]-2-oxidanylidene-ethyl]-N-propyl-ethanamide] | > 100 µM |
| CCOc1cc(CN=Nc2nc(O)c(CC(=O)O)s2)ccc1OCc1ccc(Cl)cc1Cl [2-[2-[(N''E)-N''-[4-(2,4-dichlorobenzyl)oxy-3-ethoxy-benzylidene]hydrazino]-4-keto-2-thiazolin-5-yl]acetic acid] | 7.26 µM |
| Cc1c(CC(=O)O)c(=O)oc2c(C)c(OCc3ccccc3Br)ccc12 [2-[7-[(2-bromophenyl)methoxy]-4,8-dimethyl-2-oxochromen-3-yl]acetic acid] | > 100 µM |
| Cc1ccc(-c2nc(NC(=O)CSc3cc(C)c4ccccc4n3)ns2)cc1 [2-[(4-methyl-2-quinolyl)thio]-N-[5-(p-tolyl)-1,2,4-thiadiazol-3-yl]acetamide] | > 100 µM |
| Cc1c(CCC(=O)O)c(=O)oc2c(C)c(OCc3ccccc3Cl)ccc12 [3-[7-[(2-chlorophenyl)methoxy]-4,8-dimethyl-2-oxochromen-3-yl]propanoic acid] | > 100 µM |
| O=C1Nc2ccc3sc4ccccc4c3c2C1=O [3H-6-Thia-3-aza-cyclopenta[c]fluorene-1,2-dione] | > 100 µM |
| O=C(N/N=C/c1cccc([N+](=O)[O-])c1)c1ccc(Br)cc1 [4-bromo-N-[(E)-(3-nitrophenyl)methylideneamino]benzamide] | > 100 µM |
| O=[N+]([O-])c1ccc(O)c(Nc2ncnc3ccccc23)c1 [4-nitro-2-(4-quinazolinylamino)phenol] | > 100 µM |
| O=C(N/N=C/c1ccc(Br)cc1)c1ccc(Br)o1 [5-bromanyl-N-[(E)-(4-bromophenyl)methylideneamino]furan-2-carboxamide] | > 100 µM |
| OCCN1CCN(C(=S)c2ccc(Cl)c(Cl)c2)CC1 [(3,4-dichlorophenyl)-[4-(2-hydroxyethyl)-1-piperazinyl]methanethione] | > 100 µM |
| CCOc1ccc(C(=S)N2CCN(C)CC2)cc1 [(4-ethoxyphenyl)-(4-methyl-1-piperazinyl)methanethione] | > 100 µM |
| Cc1ccc(C(=S)N2CCN(Cc3ccccc3)CC2)s1 [(5-methyl-2-thiophenyl)-[4-(phenylmethyl)-1-piperazinyl]methanethione] | > 100 µM |
| S=C(c1cn(CCOc2ccccc2)c2ccccc12)N1CCCC1 [MLS-0109562.0001] | > 100 µM |
| COc1cc(Cl)ccc1N=C(S)N(CCCN1CCOCC1)Cc1cn(C)c2ccccc12 [N'-(4-chloro-2-methoxyphenyl)-N-[(1-methyl-1H-indol-3-yl)methyl]-N-(3-morpholin-4-ylpropyl)thiourea] | > 100 µM |
| COc1cccc(-c2cc(C(=O)Nc3nc4ccccc4s3)c3ccccc3n2)c1 [N-(1,3-benzothiazol-2-yl)-2-(3-methoxyphenyl)-4-quinolinecarboxamide] | > 100 µM |
| O=C(N/N=C/c1cccc(Br)c1)c1ccc(N2CCCC2=O)cc1 [N-[(E)-(3-bromophenyl)methylideneamino]-4-(2-oxidanylidenepyrrolidin-1-yl)benzamide] | > 100 µM |
| O=C(COc1ccc(/C=N/NC(=O)c2ccccc2O)cc1)Nc1ccccc1 [N-[(E)-[4-(2-anilino-2-oxoethoxy)phenyl]methylideneamino]-2-hydroxybenzamide] | > 100 µM |
| COc1ccc(CN=Nc2nc(O)c(CC(=O)O)s2)cc1OCc1ccc(Cl)cc1Cl [[2-({3-[(2,4-dichlorobenzyl)oxy]-4-methoxybenzylidene}hydrazono)-4-oxo-1,3-thiazolidin-5-yl]acetic acid] | 33.8 µM |

Further lines, results first:

| IC50 | Structure (SMILES) |
| --- | --- |
| > 100 µM | CCc1ccc(OCC(=O)Nc2ccc(-c3nc4ccccc4o3)c(O)c2)cc1 [MLS000109444] |
| > 100 µM | S=C1N=C2C(=C3SCCS3)CCCC2C(c2ccccc2)N1 (stereo not given) [MLS000516376] |
| > 100 µM | O=C(N/N=C/c1ccc(OC(=O)c2cccs2)cc1)c1cccc(F)c1 [MLS000576933] |
| > 100 µM | OCCN1CCN(C(=S)c2ccc(Br)cc2)CC1 [MLS000577024] |
| > 100 µM | O=C(N/N=C/c1ccc(Cl)c([N+](=O)[O-])c1)c1ccc2c(c1)OCCO2 [MLS000587937] |
| > 100 µM | COC(=O)Nc1sc2c(c1C(N)=O)CCC(C)C2 (stereo not given) [MLS000683996] |
| > 100 µM | CC(C)(C)C(=O)Nc1ccc(C(=O)Nc2cccc(Oc3ccc(C(=O)O)c(C(=O)O)c3)c2)cc1 [MLS001181252] |
| > 100 µM | CCOc1ccc(/C=N/NC(=O)c2cc3c(OC)cccc3[nH]2)cc1 [MLS001216500] |
| 2.82 µM | CSc1ccc(CN=Nc2ccc(S(=O)(=O)Nc3ccccc3C(=O)O)cc2[N+](=O)[O-])cc1 [MLS002245633] |
| > 100 µM | O=C(N/N=C/C1C=CC=CC1=O)c1cccc([N+](=O)[O-])c1 (stereo not given) [MLS002667988] |
| > 100 µM | O=C(Nc1cccc2c(=O)[nH][nH]c(=O)c12)c1ccc([N+](=O)[O-])cc1 [MLS003171605] |
| > 100 µM | COc1ccc(OC)c(-n2c(O)c3o[nH]c(-c4ccccc4Cl)c-3c2=O)c1 [SMR000046218] |
| > 100 µM | CCN1CCN(C(=S)c2ccc(Cl)c(Cl)c2)CC1 [SMR000143195] |
| > 100 µM | N=C1S/C(=C\c2ccc(O)cc2)C(=O)N1c1ccc(F)cc1 [SMR000298434] |
| > 100 µM | CCOC(=O)N1CCC(N(CCN(C)C)C(=S)Nc2ccc(Oc3ccccc3)cc2)CC1 [SMR000311544] |
| > 100 µM | COC(=O)c1ccccc1CSc1nsc(/C=C/N(C)C)c1C#N [SMR000549393] |
| > 100 µM | Cc1ccc(NC(=O)c2ccc3nc(N4CCOCC4)sc3c2)c(Cl)c1 [SMR000624920] |
| > 100 µM | Cc1sc2nc(CSC(C)C(=O)Nc3ccc(Cl)cn3)nc(O)c2c1C (stereo not given) [SMR001268769] |
| > 100 µM | O=C(NN=Cc1ccccc1O)NN=Cc1ccccc1O [SMR001556943] |
